Source: patent US4725683A, “Fluorophenoxyphenoxypropionates and derivatives thereof” (The Dow Chemical Company, priority 1985, dated 1988)

Columns and labels:
Test in all cases: Selective postemergence, track sprayer
Assay type in all cases: in vivo
Bermudagrass = system: Bermudagrass
Method: (§1) Representative compositions of the present invention were evaluated for the postemergence control of species of plants listed in Table A. In these evaluations, pots of the plant species listed in Table A, grown to a height of about 10 cms, were used. Aqueous spray compositions, containing various amounts of 2-[4-(2-fluoro-4-trifluoromethylphenoxy)-phenoxy]propionic acid methy ester, i.e., 125 ppm, 62.5 ppm, 31.25 ppm, 15.6 ppm, 7.8 ppm and 3.9 ppm, respectively, were applied to separate pots. The spray compositions were made by mixing the active ingredient in acetone to 1/2 the final volume, i.e., twice the final concentration. An equal amount of water was added to the active ingredient/acetone mixture wherein the water contained 0.1 percent by weight of TWEEN® 200 surfactant. The application to the plants was made to the point of run-off and was carried out with conventional spraying equipment. Other pots were sprayed with similar compositions containing no toxicant to serve as controls. Thereafter, the pots were maintained under conditions conducive for plant growth. Two weeks after treatment, the pots were examined for plant growth and evaluated on a scale of 0 to 100 where 0 represents no effect and 100 represents complete kill. The results of the examination of the treated pots are set forth below in Table A.
(§2) To further define the selective postemergence herbicidal characteristics of compounds of the present invention, chemicals were applied to additional species of grasses as listed in Table F. Chemicals evaluated were 2-[4-(4-bromo-2-fluorophenoxy)phenoxy]propionic acid methyl ester and its R isomer. Treatment conditions were similar to those described in Example A except that chemicals were delivered through a track sprayer set to deliver the appropriate dosages in 280.6 L/hectare of water containing 0.1% Tween-20 surfactant.

Wild Proso Millet = system: Wild Proso Millet
Method: as §1, §2

Red Top = system: Red Top
Method: as §1, §2

Fall Panicum = system: Fall Panicum
Method: as §1, §2

Giant Foxtail = system: Giant Foxtail
Method: as §1, §2

Wild Oats = system: Wild Oats
Method: as §1, §2

Orchardgrass = system: Orchardgrass
Method: as §1, §2

Blackgrass = system: Blackgrass
Method: as §1, §2

Wheat = system: Wheat
Method: as §1, §2

Broadleaf Signalgrass = system: Broadleaf Signalgrass
Method: as §1, §2

Sprangletop = system: Sprangletop
Method: as §1, §2

Goosegrass = system: Goosegrass
Method: as §1, §2

Crabgrass = system: Crabgrass
Method: as §1, §2

Measured: Percent Control

COC(=O)[C@@H](C)Oc1ccc(Oc2ccc(Br)cc2F)cc1 [4-Bromo-(R-Enantiomer), R enantiomer of 2-[4-(4-bromo-2-fluorophenoxy)phenoxy]propionic acid methyl ester]
100%: Wild Proso Millet; 0.0045 kgs/hectare | Wild Proso Millet; 0.018 kgs/hectare | Wild Proso Millet; 0.035 kgs/hectare | Wild Proso Millet; 0.07 kgs/hectare | Wild Proso Millet; 0.14 kgs/hectare | Wild Proso Millet; 0.28 kgs/hectare | Fall Panicum; 0.018 kgs/hectare | Fall Panicum; 0.035 kgs/hectare | Fall Panicum; 0.07 kgs/hectare | Fall Panicum; 0.14 kgs/hectare | Fall Panicum; 0.28 kgs/hectare | Giant Foxtail; 0.0011 kgs/hectare | Giant Foxtail; 0.0023 kgs/hectare | Giant Foxtail; 0.0045 kgs/hectare | Giant Foxtail; 0.009 kgs/hectare | Giant Foxtail; 0.018 kgs/hectare | Giant Foxtail; 0.035 kgs/hectare | Giant Foxtail; 0.07 kgs/hectare | Giant Foxtail; 0.14 kgs/hectare | Giant Foxtail; 0.28 kgs/hectare | Blackgrass; 0.018 kgs/hectare | Blackgrass; 0.035 kgs/hectare | Blackgrass; 0.07 kgs/hectare | Blackgrass; 0.14 kgs/hectare | Blackgrass; 0.28 kgs/hectare | Broadleaf Signalgrass; 0.018 kgs/hectare | Broadleaf Signalgrass; 0.035 kgs/hectare | Broadleaf Signalgrass; 0.07 kgs/hectare | Broadleaf Signalgrass; 0.14 kgs/hectare | Broadleaf Signalgrass; 0.28 kgs/hectare | Sprangletop; 0.0023 kgs/hectare | Sprangletop; 0.0045 kgs/hectare | Sprangletop; 0.009 kgs/hectare | Sprangletop; 0.018 kgs/hectare | Sprangletop; 0.035 kgs/hectare | Sprangletop; 0.07 kgs/hectare | Sprangletop; 0.14 kgs/hectare | Sprangletop; 0.28 kgs/hectare | Crabgrass; 0.07 kgs/hectare | Crabgrass; 0.14 kgs/hectare | Crabgrass; 0.28 kgs/hectare
0%: Bermudagrass; 0.00055 kgs/hectare | Bermudagrass; 0.0011 kgs/hectare | Bermudagrass; 0.0023 kgs/hectare | Red Top; 0.00055 kgs/hectare | Red Top; 0.0011 kgs/hectare | Red Top; 0.0023 kgs/hectare | Red Top; 0.0045 kgs/hectare | Red Top; 0.009 kgs/hectare | Red Top; 0.018 kgs/hectare | Wild Oats; 0.00055 kgs/hectare | Wild Oats; 0.0011 kgs/hectare | Wild Oats; 0.0023 kgs/hectare | Wild Oats; 0.0045 kgs/hectare | Orchardgrass; 0.00055 kgs/hectare | Orchardgrass; 0.0011 kgs/hectare | Orchardgrass; 0.0023 kgs/hectare | Orchardgrass; 0.0045 kgs/hectare | Orchardgrass; 0.009 kgs/hectare | Orchardgrass; 0.018 kgs/hectare | Orchardgrass; 0.035 kgs/hectare | Orchardgrass; 0.07 kgs/hectare | Orchardgrass; 0.14 kgs/hectare | Wheat; 0.00055 kgs/hectare | Wheat; 0.0011 kgs/hectare | Wheat; 0.0023 kgs/hectare | Wheat; 0.0045 kgs/hectare | Wheat; 0.009 kgs/hectare | Wheat; 0.018 kgs/hectare | Wheat; 0.035 kgs/hectare | Wheat; 0.07 kgs/hectare | Wheat; 0.14 kgs/hectare | Wheat; 0.28 kgs/hectare | Sprangletop; 0.00055 kgs/hectare | Goosegrass; 0.00055 kgs/hectare | Goosegrass; 0.0011 kgs/hectare | Goosegrass; 0.0023 kgs/hectare | Crabgrass; 0.00055 kgs/hectare | Crabgrass; 0.0011 kgs/hectare | Crabgrass; 0.0023 kgs/hectare
20%: Bermudagrass; 0.0045 kgs/hectare | Fall Panicum; 0.00055 kgs/hectare | Wild Oats; 0.009 kgs/hectare | Wild Oats; 0.018 kgs/hectare | Sprangletop; 0.0011 kgs/hectare | Goosegrass; 0.0045 kgs/hectare
30%: Bermudagrass; 0.009 kgs/hectare | Wild Proso Millet; 0.00055 kgs/hectare | Wild Proso Millet; 0.0011 kgs/hectare | Red Top; 0.035 kgs/hectare | Fall Panicum; 0.0011 kgs/hectare
60%: Bermudagrass; 0.018 kgs/hectare | Blackgrass; 0.0011 kgs/hectare | Blackgrass; 0.0023 kgs/hectare | Blackgrass; 0.0045 kgs/hectare
95%: Bermudagrass; 0.28 kgs/hectare | Wild Proso Millet; 0.009 kgs/hectare | Wild Oats; 0.28 kgs/hectare | Broadleaf Signalgrass; 0.009 kgs/hectare
80%: Wild Proso Millet; 0.0023 kgs/hectare | Fall Panicum; 0.0045 kgs/hectare | Fall Panicum; 0.009 kgs/hectare | Giant Foxtail; 0.00055 kgs/hectare | Blackgrass; 0.009 kgs/hectare | Goosegrass; 0.14 kgs/hectare | Goosegrass; 0.28 kgs/hectare
70%: Wild Oats; 0.07 kgs/hectare | Wild Oats; 0.14 kgs/hectare | Goosegrass; 0.009 kgs/hectare | Goosegrass; 0.035 kgs/hectare | Goosegrass; 0.07 kgs/hectare | Crabgrass; 0.035 kgs/hectare
40%: Wild Oats; 0.035 kgs/hectare
50%: Fall Panicum; 0.0023 kgs/hectare | Orchardgrass; 0.28 kgs/hectare | Blackgrass; 0.00055 kgs/hectare | Broadleaf Signalgrass; 0.00055 kgs/hectare | Broadleaf Signalgrass; 0.0011 kgs/hectare | Broadleaf Signalgrass; 0.0023 kgs/hectare | Goosegrass; 0.018 kgs/hectare | Crabgrass; 0.0045 kgs/hectare
90%: Bermudagrass; 0.035 kgs/hectare | Bermudagrass; 0.07 kgs/hectare | Bermudagrass; 0.14 kgs/hectare | Red Top; 0.07 kgs/hectare | Red Top; 0.14 kgs/hectare | Red Top; 0.28 kgs/hectare | Broadleaf Signalgrass; 0.0045 kgs/hectare | Crabgrass; 0.009 kgs/hectare | Crabgrass; 0.018 kgs/hectare
